Results on 9 compounds are retold here after PubChem BioAssay AID1918999 (Molecular Pharmacology Branch, DTP, NCI, 2023).

Each structure is given as a SMILES string. Values joined by “and” are separate entries in the source; they are usually repeats but may differ in a detail not shown here. Equal entries are not always repeated.

In this assay the test system is 556581-035-R-J1-PDC complex spheroid growth. The assay is described as follows: Anticancer human tumor 556581-035-R-J1-PDC patient-derived ovarian carcinoma cell line growth inhibition [AhR]. As to conditions: for viability, T/C: stronger effect = lower value; for IC50: curve of compound. From the text: Multicellular complex tumor spheroid response to aryl hydrocarbon receptor antagonists in combination with a variety of drugs and investigational agents in selected tumor cell lines
The current study was undertaken to assess response to aryl hydrocarbon receptor antagonists in combination with standard-of-care drugs and investigational agents in solid tumor complex spheroid models. Complex spheroids include a stromal component modeled by human endothelial cells (HUVEC) and fibroblasts modeled by human mesenchymal stem cells (MSCs). The concentration ranges selected for each drug and investigational agent were based upon clinically achievable concentrations if the clinical Cmax of the agent was known.
Compounds. The drugs and investigational agents: BAY 2416964 (NSC825713), GNF351 (NSC835774), CH-223191 (NSC835775), CPI-455 (NSC825282), aza-TdCyd (NSC777586), decitabine (NSC127716), belinostat (NSC758774), entinostat (NSC756642), pevonedistat (NSC761192), tazemetostat (NSC777109), talazoparib (NSC765396), olaparib (NSC753686), selinexor (NSC780203), nedisertib (M3814, NSC802822), bortezomib (NSC756655), venetoclax (NSC766270), doxorubicin (NSC123127), elimusertib (BAY189344, NSC800525), ceralasertib (AZD6738, NSC777638), TAK-243 (NSC785004), alisertib (NSC759677), etoposide (NSC141540), topotecan (NSC609699), eribulin (NSC707389), gemcitabine (NSC613327), carboplatin (NSC241240), cisplatin (NSC119875), and SN-38 (NSC673596) were obtained from the National Cancer Institute (NCI) Developmental Therapeutics Program Chemical Repository (32). The FDA-approved anticancer drug set is available from the Developmental Therapeutics Program at https://dtp.cancer.gov/organization/dscb/obtaining/available plates.htm. […] The stock solutions were prepared in dimethyl sulfoxide (DMSO, Sigma-Aldrich, St. Louis, MO, cat. D2650), except for the platinum compounds which were prepared in saline (Quality Biological, Gaithersburg, MD, cat. 114-055-101), at 800-fold the tested concentration and stored at -70 degrees C prior to their use. All drugs and investigational agents were tested over a range starting from a high concentration at or near the clinical Cmax and decreasing in half-log increments. If the clinical Cmax for an agent had not been determined, the highest concentration tested was 10 microM (Table 1).
Cell Culture. All cells were maintained in an incubator at 37 degrees C and 5% CO2 with 95% humidity. The PDC lines were cultured according to standard operating procedures established by the NCI PDMR (https://pdmr.cancer.gov). Briefly, all PDCs were thawed and cultured in Matrigel-coated flasks prepared with a working solution of 1X Ham's F-12 nutrient mix, without supplementation (Invitrogen, Waltham, MA, cat. 11765054), 100 U/mL penicillin-streptomycin (Invitrogen, cat. 15140122), and 2.5% Matrigel (Corning Inc., Corning, NY, cat. 354248) for the first three passages. All PDCs were cultured in complete DMEM/F-12 media containing advanced DMEM/F-12 (Invitrogen, cat. 12634028), 4.9% defined fetal bovine serum, heat inactivated (HyClone Laboratories Inc., Logan, UT, cat. SH30070.03HI), 389 ng/mL hydrocortisone (Sigma-Aldrich, cat. H4001), 9.7 ng/mL human EGF recombinant protein (Invitrogen, cat. PHG0313), 23.4 microg/mL adenine (Sigma-Aldrich, cat. A2786), 97.3 U/mL penicillin-streptomycin (Invitrogen, cat. 15140122), 1.9 mM L-glutamine (Invitrogen, cat. 25030081), and 9.7 microM Y-27632 dihydrochloride (Tocris Bioscience, Bristol, United Kingdom, cat. 1254). The PDCs were cultured in complete DMEM/F12 media without 10 microM Y-27632 dihydrochloride for at least two passages prior to the screen. The established cell lines NCI-H1341 and […] were cultured in DMEM/F-12, HEPES (Invitrogen, cat. 11330032), 5% defined fetal bovine serum (HyClone Laboratories Inc., cat. SH30070.03), ITS premix universal culture supplement [insulin (5 microg/mL), transferrin (5 microg/mL), and selenious acid (5 ng/mL)] […]

One may read the viability, T/C as the result in the treated group divided by that in the control group, in per cent. The term IC50 denotes the concentration at which inhibition is half-maximal.
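Throughout, for viability, T/C: compound exposure lasted 7 days.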

On to `Cn1ncnc1C1c2n[nH]c(=O)c3cc(F)cc(c23)NC1c1ccc(F)cc1` (stereo not drawn), for which the IC50 was > 100 nM. Moreover, the viability, T/C (compound 0.000316 µM) was 108% and 106% and 107%. The viability, T/C (compound 0.001 µM) is 103% and 101% and 102%. Moreover, the viability, T/C (compound 0.00316 µM) is 101% and 93.3% and 98.7%. For the same compound, the viability, T/C (compound 0.01 µM) was 92.7% and 93.9% and 101%. Also, the viability, T/C (compound 0.0316 µM) was 100% (2×) and 103%. The viability, T/C (compound 0.1 µM) was 94.4% and 98.2% and 94.7%.
As for `NS(=O)(=O)OCC1CC(n2ccc3c(NC4CCc5ccccc54)ncnc32)CC1O` (stereo not drawn), the IC50 was > 10000 nM. For the same compound, the viability, T/C (compound 0.0316 µM) is 100% and 99.4% and 89%. For the same compound, the viability, T/C (compound 0.1 µM) is 109% and 118% and 98.8%. In addition, the viability, T/C (compound 0.316 µM) was 100% and 104% and 111%. In addition, the viability, T/C (compound 1 µM) was 90% and 108% and 103%. The viability, T/C (compound 3.16 µM) was 88% and 106% and 113%. Also, the viability, T/C (compound 10 µM) was 73.4% and 86.2% and 81.5%.
Turning to `Nc1ccccc1NC(=O)c1ccc(CNC(=O)OCc2cccnc2)cc1`, the IC50 is 1860 nM and 2090 nM and 887 nM. For the same compound, the viability, T/C (compound 0.0316 µM) was 107% and 100% and 98.1%. In addition, the viability, T/C (compound 0.1 µM) was 90.8% and 105% and 99%. Also, the viability, T/C (compound 0.316 µM) was 90.4% and 74.8% and 71.6%. Further, where the note is “compound 1 µM”, the viability, T/C was 63.6% and 66.1% and 48.9%. Further, the viability, T/C (compound 3.16 µM) was 37.2% and 42.8% and 26.6%. The viability, T/C (compound 10 µM) was 19.1% and 17% and 18.4%.
As for `Nc1ccn(C2OC(CO)C(O)C2(F)F)c(=O)n1` (stereo not drawn), the IC50 was < 31.6 nM. The viability, T/C (compound 0.0316 µM) was 32.3% and 35% and 33.6%. Further, for the setting “compound 0.1 µM”, the viability, T/C is 38.3% and 35.4% and 37.6%. The viability, T/C (compound 0.316 µM) was 32.6% and 36.3% and 46.9%. For the same compound, the viability, T/C (compound 1 µM) is 37.1% and 36.9% and 40.4%. Moreover, for the setting “compound 3.16 µM”, the viability, T/C was 39.2% and 35.1% and 36.5%. Where the note is “compound 10 µM”, the viability, T/C is 31.2% and 31.4% and 32.4%.
As to `Nc1ncn(C2CC(O)C(CO)O2)c(=O)n1` (stereo not drawn), the IC50 is > 1000 nM. Moreover, the viability, T/C (compound 0.00316 µM) is 90.6% and 101% and 102%. The viability, T/C (compound 0.01 µM) is 101% (2×) and 105%. Further, the viability, T/C (compound 0.0316 µM) is 91.6% and 90.4% and 90.8%. For the same compound, the viability, T/C (compound 0.1 µM) is 95.1% and 95.6% and 86.2%. In addition, for the setting “compound 0.316 µM”, the viability, T/C is 95.8% and 81.7% and 82.5%. The viability, T/C (compound 1 µM) was 83.9% and 75.5% and 76.9%.
For the compound `Nc1ncn(C2CC(O)C(CO)S2)c(=O)n1` (stereo not drawn), the half-maximal inhibitory concentration (IC50) is > 300 nM. The viability, T/C (compound 0.000949 µM) was 92% and 102% and 111%. In addition, the viability, T/C (compound 0.003 µM) is 109% and 115% and 113%. Also, the viability, T/C (compound 0.00949 µM) is 102% and 106% and 113%. Further, the viability, T/C (compound 0.03 µM) is 88% and 106% and 100%. For the same compound, the viability, T/C (compound 0.0949 µM) was 82.2% and 87.7% and 100%. The viability, T/C (compound 0.3 µM) is 67.3% and 67.2% and 64.9%.
In the case of `O=C(C=Cc1cccc(S(=O)(=O)Nc2ccccc2)c1)NO`, the IC50 was 1250 nM and 1330 nM and 1110 nM. Moreover, where the note is “compound 0.0316 µM”, the viability, T/C is 104% and 98.7% and 101%. In addition, the viability, T/C (compound 0.1 µM) is 105% and 99.7% and 84.2%. Besides, where the note is “compound 0.316 µM”, the viability, T/C is 85.4% and 76.4% and 76.7%. Moreover, the viability, T/C (compound 1 µM) was 54.8% and 58.9% and 56.1%. Moreover, the viability, T/C (compound 3.16 µM) is 25.9% and 28.1% and 21.8%. In addition, the viability, T/C (compound 10 µM) was 3.85% and 5.28% and 4.17%.
`O=C(C=Cn1cnc(-c2cc(C(F)(F)F)cc(C(F)(F)F)c2)n1)NNc1cnccn1`: the half-maximal inhibitory concentration (IC50) is 2220 nM and > 3000 nM. Moreover, the viability, T/C (compound 0.00949 µM) is 91.3% (2×) and 109%. The viability, T/C (compound 0.03 µM) was 104% and 93.8% and 98.7%. Also, the viability, T/C (compound 0.0949 µM) is 89.4% and 85% and 83.4%. The viability, T/C (compound 0.3 µM) was 80.2% and 78.5% and 72.8%. In addition, the viability, T/C (compound 0.949 µM) is 65.8% and 77.7% and 69.5%. The viability, T/C (compound 3 µM) was 44.5% and 54% and 67.8%.
For the compound `O=C(c1cc(Cc2n[nH]c(=O)c3ccccc23)ccc1F)N1CCN(C(=O)C2CC2)CC1`, the IC50 was > 10000 nM. In addition, where the note is “compound 0.0316 µM”, the viability, T/C was 100% and 98.6% and 97.2%. Further, the viability, T/C (compound 0.1 µM) is 103% and 96.9% and 88.5%. The viability, T/C (compound 0.316 µM) is 95.3% and 93.3% and 86.6%. The viability, T/C (compound 1 µM) was 102% and 93.8% and 87.4%. In addition, the viability, T/C (compound 3.16 µM) was 94.5% and 91.3% and 93.1%. Also, the viability, T/C (compound 10 µM) was 74.8% and 82.6% and 69.8%.
